Consider five molecules from US8097605B2, “Combination of anticholinergics and inhibitors of phosphodiesterase type 4 for the treatment of respiratory disease” (Meda Pharma GmbH & Co. KG, priority 2004, dated 2012).

Structures are written as SMILES.

In one data set the test system is M1-M3 receptors. The following applies: cited from earlier work.
Another data set addresses M3 muscarinic receptors (Homo sapiens, UniProt P20309). To be noted: kinetics studies; cited from earlier work.
The conditions of data set [1]: dog, in vivo, 15 mg/kg; cited from earlier work.
In data set [2] the test system is allergen-induced airway eosinophilia. To be noted: Brown Norway rats, administered intrapulmonary; cited from earlier work.
The test system of data set [3] is human peripheral blood mononuclear cells (PBMCs). Nature of the data set: LPS-induced TNFα release from human PBMCs/monocytes (sandwich ELISA). In kind it is cell-based. The following applies: LPS 1 μg/ml. Here is the method: The influence of R,R-glycopyrrolate in combination with PDE4 inhibitors on TNF secretion was investigated by using human peripheral blood mononuclear cells (PBMCs). The study was approved by our institutional Ethics Committee according to the International Declarations of Helsinki and Tokyo.
PBMCs were isolated from heparinized blood samples of healthy donors by density gradient centrifugation. An equal volume of Hanks buffer (Life Technologies, Heidelberg, Germany) is added to heparinized whole blood samples. 15 ml Histopaque-1077 (Sigma, Deisenhofen, Germany) are overlayed with a maximum of 40 ml of blood/Hanks mixture were centrifuged for 30 min at room temperature (2000 rpm). A visible band containing PBMCs is transferred to a fresh tube and washed twice with Hanks-buffer. Finally cells are seeded in RPMI 1640 Medium (Life Technologies, Heidelberg, Germany) with Glutamax I (Gibco BRL, Eggenstein) and 10% fetal calf serum (Boehringer Mannheim, Penzberg, Germany). After isolated, PBMCs were cultured in RPMI 1640 medium supplemented with 10% fetal calf serum (FCS) at 37° C. 5% CO2 overnight. […] by adherence method, non-adherent cells were removed by changing the medium.
Cells are re-suspended at 10^6 cells/ml and incubated in 500 μl volumes in 24-well tissue culture plates (Falcon Becton Dickinson Labware) at 37° C., 5% CO2. After pre-incubation with test substances (0.5 μl/500 μl medium) for 30 min, cells were stimulated with lipopolysaccharide (LPS) (1 μg/ml). […]
Cytokine measurements in culture supernatants are done by sandwich ELISA using matched antibody pairs (Pharmingen, Heidelberg, Germany). […] Plates are read at 450 nm (reference 570 nm) in a microplate reader (Dynatech). The results are expressed as a percentage of the control level of cytokines production by cells stimulated in the absence of the compound.
Background: An ELISA detects its analyte on a solid surface through an enzyme-linked reagent.

Chain of M3 muscarinic receptors (P20309 whole entry): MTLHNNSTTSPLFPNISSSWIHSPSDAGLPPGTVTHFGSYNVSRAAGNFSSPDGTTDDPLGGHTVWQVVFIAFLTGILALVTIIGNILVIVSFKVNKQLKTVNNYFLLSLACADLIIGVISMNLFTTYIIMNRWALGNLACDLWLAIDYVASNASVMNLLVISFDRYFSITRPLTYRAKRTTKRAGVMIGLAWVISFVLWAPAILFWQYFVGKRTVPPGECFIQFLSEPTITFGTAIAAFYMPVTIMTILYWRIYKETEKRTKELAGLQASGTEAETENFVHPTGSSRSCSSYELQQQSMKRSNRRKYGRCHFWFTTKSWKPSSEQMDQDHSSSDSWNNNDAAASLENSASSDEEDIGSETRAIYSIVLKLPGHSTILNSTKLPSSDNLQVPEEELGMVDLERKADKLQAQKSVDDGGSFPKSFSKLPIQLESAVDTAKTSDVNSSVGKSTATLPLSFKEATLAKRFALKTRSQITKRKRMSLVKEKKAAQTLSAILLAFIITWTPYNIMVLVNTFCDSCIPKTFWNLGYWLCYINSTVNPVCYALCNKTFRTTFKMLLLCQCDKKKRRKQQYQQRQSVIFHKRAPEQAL

As for `C[N+]1(C)CCC(OC(=O)C(O)(c2ccccc2)C2CCCC2)C1` (racemic) [Glycopyrrolate], the “selectivity in binding to the M1-M3 receptors” value in the data set on M1-M3 receptors is on record as “no selectivity”. The “dissociation from M3 muscarinic receptors” value at M3 muscarinic receptors is listed as “dissociates slowly”.

For the molecule `O=C(Nc1c(Cl)cncc1Cl)C(=O)c1cn(Cc2ccc(F)cc2)c2ccc(O)cc12` [AWD 12-281], the emesis result in data set [1] was “no emesis was induced”. Also, in data set [2], the “ID50 suppression of allergen-induced airway eosinophilia” value is 7 µg/kg. On to `C[N+]1(C)CC[C@@H](OC(=O)[C@](O)(c2ccccc2)C2CCCC2)C1.[Br-]` [R,R-glycopyrrolate], for which the “influence on LPS-induced TNFα release” value in data set [3] (compound alone, up to 10 μmol/l) was “did not influence”. As to `C[C@H]1C[C@H]2[C@@H]3CCC4=CC(=O)C=C[C@]4(C)[C@@]3(Cl)[C@@H](O)C[C@]2(C)[C@@]1(O)C(=O)CO` [beclomethasone], the “ID50 suppression of allergen-induced airway eosinophilia” value in data set [2] is 0.1 µg/kg.

Turning to `COc1ccc(C2CNC(=O)C2)cc1OC1CCCC1` (centres unmarked) [rolipram], the “IC35 of TNFα release inhibition” value in data set [3] (rolipram alone) turned out to be 68.9 ± 15.2 nM. In addition, the “IC35 of TNFα release inhibition with simultaneous addition of R,R-glycopyrrolate” value in data set [3] (rolipram plus 10 μmol/l R,R-glycopyrrolate, p=0.0151) was found to be 1.70 ± 1.18 nM.
